Measurements reported in paper PMC12013712, “The protein kinases KIPK and KIPK-LIKE1 suppress overbending during negative hypocotyl gravitropic growth in Arabidopsis” (The Plant Cell, 2025).

Columns and labels:
PIN3 = molecular target: T1, PIN3 (Arabidopsis thaliana, UniProt Q9S7Z8); assay: [3H]-IAA efflux from Xenopus oocytes; format: cell-based; details: co-expressed with KIPK or KIPKL1; about 1 µM internal [3H]-IAA, labelled compound; outside pH 7.4, 21 °C
T1 sequence (Q9S7Z8 1-640): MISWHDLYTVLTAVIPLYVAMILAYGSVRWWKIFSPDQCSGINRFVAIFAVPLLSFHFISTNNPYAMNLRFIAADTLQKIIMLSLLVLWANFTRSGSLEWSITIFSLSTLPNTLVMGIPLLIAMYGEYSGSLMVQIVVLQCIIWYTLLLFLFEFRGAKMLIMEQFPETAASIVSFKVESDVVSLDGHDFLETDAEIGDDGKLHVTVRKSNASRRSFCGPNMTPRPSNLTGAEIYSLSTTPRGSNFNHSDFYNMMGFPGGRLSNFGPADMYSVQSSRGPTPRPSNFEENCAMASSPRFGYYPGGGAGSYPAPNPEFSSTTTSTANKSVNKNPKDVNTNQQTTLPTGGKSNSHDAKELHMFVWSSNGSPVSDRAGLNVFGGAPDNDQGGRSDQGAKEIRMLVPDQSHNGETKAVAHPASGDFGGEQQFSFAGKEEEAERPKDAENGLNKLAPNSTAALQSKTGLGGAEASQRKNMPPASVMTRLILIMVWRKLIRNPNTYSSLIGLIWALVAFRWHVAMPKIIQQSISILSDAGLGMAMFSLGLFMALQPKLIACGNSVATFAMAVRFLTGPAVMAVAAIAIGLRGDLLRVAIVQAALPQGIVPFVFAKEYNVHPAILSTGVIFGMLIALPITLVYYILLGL

KIPK = molecular target: T2, KIPK (Arabidopsis thaliana, UniProt Q9LFA2); assay: in vitro phosphorylation of GST-PIN3CL, autoradiography; format: biochemical; details: MBP fusion; 100 µM ATP with [γ-32P]ATP, labelled compound; 5 mM MgCl2, pH 7.5, 30 °C, 1 h
T2 construct: gene KIPK1; GST fusion (PIP strips) or MBP fusion (phosphorylation), tags kept, from E. coli Rosetta (DE3)
T2 sequence (Q9LFA2 1-934): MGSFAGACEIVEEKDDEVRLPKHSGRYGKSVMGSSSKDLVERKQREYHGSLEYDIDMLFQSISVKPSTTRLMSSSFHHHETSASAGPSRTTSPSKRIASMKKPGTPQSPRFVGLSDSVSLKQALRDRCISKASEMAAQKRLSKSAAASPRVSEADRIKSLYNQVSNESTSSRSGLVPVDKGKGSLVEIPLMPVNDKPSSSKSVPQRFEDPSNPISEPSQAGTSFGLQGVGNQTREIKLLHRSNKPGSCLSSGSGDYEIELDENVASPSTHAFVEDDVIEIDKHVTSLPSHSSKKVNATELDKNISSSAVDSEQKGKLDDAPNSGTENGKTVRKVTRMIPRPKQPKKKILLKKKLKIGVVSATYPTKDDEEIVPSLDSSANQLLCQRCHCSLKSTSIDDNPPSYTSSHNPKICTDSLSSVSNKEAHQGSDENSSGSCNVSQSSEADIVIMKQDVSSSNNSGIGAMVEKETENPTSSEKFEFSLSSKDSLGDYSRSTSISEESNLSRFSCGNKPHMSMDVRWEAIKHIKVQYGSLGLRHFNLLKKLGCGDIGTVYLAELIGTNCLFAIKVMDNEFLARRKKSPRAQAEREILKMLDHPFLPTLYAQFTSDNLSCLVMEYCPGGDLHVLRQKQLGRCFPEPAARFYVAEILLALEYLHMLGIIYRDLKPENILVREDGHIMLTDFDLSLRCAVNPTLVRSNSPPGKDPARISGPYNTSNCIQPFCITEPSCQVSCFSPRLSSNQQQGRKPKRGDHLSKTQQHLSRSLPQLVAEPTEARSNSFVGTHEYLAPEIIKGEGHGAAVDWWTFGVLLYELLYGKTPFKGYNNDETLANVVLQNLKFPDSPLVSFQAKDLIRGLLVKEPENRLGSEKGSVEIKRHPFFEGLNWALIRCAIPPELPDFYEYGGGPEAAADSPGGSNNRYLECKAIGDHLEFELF

KIPKL2 = molecular target: T3, KIPKL2 (Arabidopsis thaliana, UniProt Q9LZS4); assay: as above; format: biochemical; details: MBP fusion; 100 µM ATP with [γ-32P]ATP, labelled compound; 5 mM MgCl2, pH 7.5, 30 °C, 1 h
T3 construct: gene AGC1-8; GST fusion (PIP strips) or MBP fusion (phosphorylation), tags kept, from E. coli Rosetta (DE3)
T3 sequence (Q9LZS4 1-926): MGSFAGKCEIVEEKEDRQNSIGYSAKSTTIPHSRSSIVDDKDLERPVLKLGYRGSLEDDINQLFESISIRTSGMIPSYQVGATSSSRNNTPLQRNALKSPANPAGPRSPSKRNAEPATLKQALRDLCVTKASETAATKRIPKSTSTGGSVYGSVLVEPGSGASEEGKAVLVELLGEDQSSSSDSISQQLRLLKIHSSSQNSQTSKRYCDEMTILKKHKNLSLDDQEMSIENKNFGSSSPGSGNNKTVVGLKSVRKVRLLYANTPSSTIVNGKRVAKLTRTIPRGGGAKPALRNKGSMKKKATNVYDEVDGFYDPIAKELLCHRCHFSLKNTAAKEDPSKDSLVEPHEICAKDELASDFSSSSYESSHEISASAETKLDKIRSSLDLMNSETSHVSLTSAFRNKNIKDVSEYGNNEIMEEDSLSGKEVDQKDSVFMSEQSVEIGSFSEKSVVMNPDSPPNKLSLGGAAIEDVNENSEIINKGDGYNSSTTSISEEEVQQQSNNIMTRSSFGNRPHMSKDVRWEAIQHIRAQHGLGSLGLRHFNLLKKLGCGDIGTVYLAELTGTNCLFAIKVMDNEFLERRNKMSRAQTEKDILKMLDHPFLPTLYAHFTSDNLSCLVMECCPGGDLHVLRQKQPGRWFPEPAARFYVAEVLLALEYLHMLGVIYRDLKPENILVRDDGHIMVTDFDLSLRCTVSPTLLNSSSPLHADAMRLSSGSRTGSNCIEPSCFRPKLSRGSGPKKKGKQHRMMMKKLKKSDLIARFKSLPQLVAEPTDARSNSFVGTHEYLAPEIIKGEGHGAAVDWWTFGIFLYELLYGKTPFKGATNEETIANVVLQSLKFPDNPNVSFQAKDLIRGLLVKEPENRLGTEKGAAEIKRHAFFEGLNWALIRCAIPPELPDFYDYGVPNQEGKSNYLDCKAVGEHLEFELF

KIPKL1 = molecular target: T4, KIPKL1 (Arabidopsis thaliana, UniProt Q9SJM3); assay: as above; format: biochemical; details: MBP fusion; 100 µM ATP with [γ-32P]ATP, labelled compound; 5 mM MgCl2, pH 7.5, 30 °C, 1 h
T4 construct: gene KIPK2; GST fusion (PIP strips) or MBP fusion (phosphorylation), tags kept, from E. coli Rosetta (DE3)
T4 sequence (Q9SJM3 1-949): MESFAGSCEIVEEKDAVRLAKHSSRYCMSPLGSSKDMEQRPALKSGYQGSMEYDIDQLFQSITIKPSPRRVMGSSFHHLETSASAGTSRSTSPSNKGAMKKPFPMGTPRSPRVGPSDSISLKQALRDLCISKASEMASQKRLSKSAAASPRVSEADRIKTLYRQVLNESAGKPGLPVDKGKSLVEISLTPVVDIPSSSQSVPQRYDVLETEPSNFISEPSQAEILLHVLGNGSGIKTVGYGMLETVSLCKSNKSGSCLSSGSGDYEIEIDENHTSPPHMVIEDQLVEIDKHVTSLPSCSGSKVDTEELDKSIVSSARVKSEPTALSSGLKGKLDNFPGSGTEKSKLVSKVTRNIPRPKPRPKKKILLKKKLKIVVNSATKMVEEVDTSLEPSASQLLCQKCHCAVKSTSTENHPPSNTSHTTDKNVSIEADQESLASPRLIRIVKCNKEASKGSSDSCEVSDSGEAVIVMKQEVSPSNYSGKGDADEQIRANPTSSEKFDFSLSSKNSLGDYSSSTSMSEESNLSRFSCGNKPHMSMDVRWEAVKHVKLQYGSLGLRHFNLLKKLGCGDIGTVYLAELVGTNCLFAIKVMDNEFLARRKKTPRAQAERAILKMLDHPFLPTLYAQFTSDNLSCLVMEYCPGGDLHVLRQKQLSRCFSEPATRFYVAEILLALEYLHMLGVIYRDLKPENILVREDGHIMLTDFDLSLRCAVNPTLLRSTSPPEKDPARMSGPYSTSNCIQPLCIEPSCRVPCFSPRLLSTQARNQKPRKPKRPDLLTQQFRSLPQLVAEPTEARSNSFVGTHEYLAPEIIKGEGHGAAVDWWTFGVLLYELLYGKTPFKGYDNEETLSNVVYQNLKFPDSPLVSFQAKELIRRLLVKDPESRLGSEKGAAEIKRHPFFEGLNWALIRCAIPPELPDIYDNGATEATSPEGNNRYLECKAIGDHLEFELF

Row | Structure (SMILES) | [3H]-IAA efflux from Xenopus oocytes (PIN3) | in vitro phosphorylation of GST-PIN3CL, autoradiography (KIPK) | in vitro phosphorylation of GST-PIN3CL, autoradiography (KIPKL2) | in vitro phosphorylation of GST-PIN3CL, autoradiography (KIPKL1)
1 | O=C(O)Cc1c[nH]c2ccccc12 [IAA] | PIN3-mediated auxin efflux was activated when PIN3 was co-expressed with KIPK or KIPKL1 | – | – | –
2 | Nc1ncnc2c1ncn2[C@@H]1O[C@H](COP(=O)(O)OP(=O)(O)OP(=O)(O)O)[C@@H](O)[C@H]1O [ATP] | – | MBP-KIPK and MBP-KIPKL1 phosphorylated the GST- (glutathione-S-transferase-) tagged PIN3 cytoplasmic loop | GST-PIN3CL phosphorylation by MBP-KIPKL2 was reproducibly comparatively less efficient | MBP-KIPK and MBP-KIPKL1 phosphorylated the GST- (glutathione-S-transferase-) tagged PIN3 cytoplasmic loop
